This note sets out measurements from article PMC9019507, “OAT10/SLC22A13 Acts as a Renal Urate Re-Absorber: Clinico-Genetic and Functional Analyses With Pharmacological Impacts” (Frontiers in Pharmacology, 2022).

One may read the IC50 as the concentration at which inhibition is half-maximal. A low value points to higher potency.

The structures appear in SMILES notation.

For experiment [1], the target named is T1, OAT10/SLC22A13 (Homo sapiens, UniProt Q9Y226). Put plainly: cell-based. Details: full-length human OAT10 wild-type, EGFP-fused (pEGFP-N1); species or system 293A. How it is done:
Calculation of the Half-Maximal Inhibitory Concentration Values  FIGURE 5 Effects of urate-lowering drugs and their reactive metabolites on the urate transport activity of OAT10. (A) OAT10-mediated urate transport activities in the presence or absence of urate-lowering drugs, including their reactive metabolites, at 100 μM or experimentally maximum concentrations (Table 2). AP, allopurinol; OP, oxypurinol; FEB, febuxostat; TOP, topiroxostat; BBR, benzbromarone; 6-OH BBR, 6-hydroxybenzbromarone; DU, dotinurad; LU, lesinurad; PB, probenecid; FF, fenofibrate; LOS, losartan. (B) Comparison of the effects of each compound (10 μM) on the urate transport activities of URAT1 and OAT10. Values are shown as % of vehicle control (only 0.1% dimethyl sulfoxide); data are expressed as the mean ± SD; n = 3–4 (A,B). ^†† p < 0.01 (two-sided t-test). […] The urate transport activities were measured in the presence of each compound at indicated concentrations for 1 min.

For experiment [2], the target named is T2, URAT1/SLC22A12 (Homo sapiens, UniProt Q96S37).
T2 construct: full-length human URAT1 wild-type, EGFP-fused (pEGFP-C1)
T2 sequence (Q96S37 1-553): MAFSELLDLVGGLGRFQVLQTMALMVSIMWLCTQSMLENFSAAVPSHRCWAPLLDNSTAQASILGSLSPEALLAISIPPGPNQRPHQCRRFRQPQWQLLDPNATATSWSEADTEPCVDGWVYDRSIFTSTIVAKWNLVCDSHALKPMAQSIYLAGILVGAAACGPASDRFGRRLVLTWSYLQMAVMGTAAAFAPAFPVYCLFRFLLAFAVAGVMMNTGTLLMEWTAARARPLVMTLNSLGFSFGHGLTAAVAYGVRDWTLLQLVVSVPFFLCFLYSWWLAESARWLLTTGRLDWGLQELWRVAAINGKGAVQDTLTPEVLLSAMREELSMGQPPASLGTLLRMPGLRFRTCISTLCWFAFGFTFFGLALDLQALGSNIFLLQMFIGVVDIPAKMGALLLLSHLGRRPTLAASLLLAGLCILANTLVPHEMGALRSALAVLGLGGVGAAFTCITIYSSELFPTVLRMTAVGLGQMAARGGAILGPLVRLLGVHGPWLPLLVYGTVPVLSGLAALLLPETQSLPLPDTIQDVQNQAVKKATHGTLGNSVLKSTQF
Put plainly: cell-based. Details: species or system 293A; inhibition of [8-14C]-urate uptake by URAT1-expressing 293A cells, concentration-response.
Procedure: Transiently URAT1-expressing 293A cells were subjected to a cell-based urate transport assay, 48 h after transfection. As a transport buffer, Ringer solution, which contains Cl−, or Cl−-free Hanks’ Balanced Salt Solution (HBSS) containing 10 μM [8-14C]-urate was used. […] Data are expressed as the mean ± SD; n = 4.

For experiment [3], the target named is T2, URAT1/SLC22A12. Put plainly: inhibition of [[…]-14C]-urate uptake in URAT1-expressing […] cells ([…]). In kind it is cell-based.
Experiment [4] has as its target T2, URAT1/SLC22A12. As to the kind of experiment: inhibition of [[…]-14C]-urate uptake in URAT1-expressing […] cells. In kind it is cell-based.
For experiment [5], the target named is T1, OAT10/SLC22A13. Put plainly: inhibition of [[…]-14C]-urate uptake in OAT10-expressing […] cells. It counts as cell-based.
The target of experiment [6] is T1, OAT10/SLC22A13. Put plainly: concentration-dependent inhibition of [[…]-14C]-urate uptake in OAT10-expressing […] cells. In kind it is cell-based.

T1 sequence (Q9Y226 whole entry, the tested form may be a part): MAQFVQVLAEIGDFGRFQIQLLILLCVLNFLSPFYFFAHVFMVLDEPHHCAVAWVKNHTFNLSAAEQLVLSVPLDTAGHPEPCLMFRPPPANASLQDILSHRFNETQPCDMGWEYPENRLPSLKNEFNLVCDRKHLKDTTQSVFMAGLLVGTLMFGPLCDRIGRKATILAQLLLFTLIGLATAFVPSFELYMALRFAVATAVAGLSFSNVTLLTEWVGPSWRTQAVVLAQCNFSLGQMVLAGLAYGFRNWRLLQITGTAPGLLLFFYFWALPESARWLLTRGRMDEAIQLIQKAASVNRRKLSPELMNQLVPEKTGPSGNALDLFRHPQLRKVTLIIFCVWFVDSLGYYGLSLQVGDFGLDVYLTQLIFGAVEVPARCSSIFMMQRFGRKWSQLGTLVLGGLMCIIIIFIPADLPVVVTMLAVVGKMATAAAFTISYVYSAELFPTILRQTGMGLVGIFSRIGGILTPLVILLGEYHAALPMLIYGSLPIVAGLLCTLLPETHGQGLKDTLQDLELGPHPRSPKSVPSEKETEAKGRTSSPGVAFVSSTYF

In the case of `O=C(c1cc(Cl)c(O)c(Cl)c1)N1CS(=O)(=O)c2ccccc21` [DU, dotinurad], the IC50 stood at 7.7 µM against OAT10/SLC22A13 [1] and 0.043 µM against URAT1/SLC22A12 [2]. Further, the “inhibition of [8-14C]-urate uptake in URAT1-expressing 293A cells (10 μM)” value against URAT1/SLC22A12 [3] was “benzbromarone, 6-hydroxybenzbromarone, and dotinurad were more specific to URAT1 than OAT10”.
Regarding `CCCCc1nc(Cl)c(CO)n1Cc1ccc(-c2ccccc2-c2nn[nH]n2)cc1` [LOS, losartan], the figures for the IC50 on URAT1/SLC22A12 [4] and at OAT10/SLC22A13 [5] were 11.9 µM and 2.5 µM, respectively.
Consider `O=C(O)CSc1nnc(Br)n1-c1ccc(C2CC2)c2ccccc12` [LU, lesinurad], for which the IC50 result at OAT10/SLC22A13 [6] was “lesinurad inhibited OAT10 and URAT1 comparably”. Moreover, the “inhibition of [8-14C]-urate uptake in URAT1-expressing 293A cells (10 μM)” value on URAT1/SLC22A12 [3] is “lesinurad inhibited OAT10 and URAT1 comparably”.
